A short description of the data set: clinical. Particulars: human, in vivo.

Four molecules from patent US9375404B2 (Duchesnay Inc., priority 2012, dated 2016) can be followed below.

Method: Data are from bioavailability studies in healthy volunteers. 5 mg: 12 healthy men, 20 mg: 42 healthy women, 25 mg: 12 healthy women, 40 mg: 18 healthy women;

For the molecule `Cc1ncc(CO)c(CO)c1O` [pyridoxine, reference compound], the “amount unchanged in blood” value is reported as “about 1%”; the “availability with increasing dose” value is “availability is not increased”; the “dose vs. Cmax relationship (linearity of pharmacokinetics)” value (shortened to “dose vs. Cmax relationship”) is “Cmax increases less than expected”; the “inter subject and inter study variations” value is “significantly higher”. Further, the metabolism entry is listed as “rapidly metabolized”.

As to `CN(C)CCOC(C)(c1ccccc1)c1ccccn1` (centres unmarked) [doxylamine, reference compound], the half-life (usually the time needed for the level to fall by half in the phase considered) (half-life) was about 12 h.

As to `Cc1ncc(COP(=O)(O)O)c(C=O)c1O` [PLP, pyridoxal 5-phosphate], the “availability among pyridoxine metabolites” value is given as “most available active metabolite”, the “dose vs. Cmax relationship” value is reported as “increase more than expected”, the half-life worked out at 60 h and the “persistence in the systemic circulation” value was “remaining in the systemic circulation the longest”.

On to `Cc1ncc(CO)c(C=O)c1O` [pyridoxal], for which the bioavailability at steady-state entry was “significant bioavailability increases”; the “change in Cmax and AUC” value is “significant increase”; the “change in T1/2” value is “significant lengthening”; the “dose vs. Cmax relationship” value is reported as “increase more than expected”.
